Measured values: BindingDB's records for doi:10.1016/j.bmcl.2006.12.025 (Pharmacopeia Drug Discovery, 2007)

target: Prostacyclin receptor (Homo sapiens, UniProt P43119); assay: IP Receptor Filter Binding Assay and cAMP Assay; settings: pH 7.4; 22 °C
Source text: IP receptor binding activity was quantified via a filter binding assay measuring displacement of [3H]-Iloprost binding to human platelet membranes. Raw data were fit to the […] to calculate IC50 values. EC50/IC50 values were obtained from functional antagonism assay by measuring the inhibition of cAMP production induced by Iloprost in human erythroleukemia (HEL) cells using a Perkin-Elmer LANCETM cAMP detection kit.

Chain of Prostacyclin receptor (P43119 whole entry): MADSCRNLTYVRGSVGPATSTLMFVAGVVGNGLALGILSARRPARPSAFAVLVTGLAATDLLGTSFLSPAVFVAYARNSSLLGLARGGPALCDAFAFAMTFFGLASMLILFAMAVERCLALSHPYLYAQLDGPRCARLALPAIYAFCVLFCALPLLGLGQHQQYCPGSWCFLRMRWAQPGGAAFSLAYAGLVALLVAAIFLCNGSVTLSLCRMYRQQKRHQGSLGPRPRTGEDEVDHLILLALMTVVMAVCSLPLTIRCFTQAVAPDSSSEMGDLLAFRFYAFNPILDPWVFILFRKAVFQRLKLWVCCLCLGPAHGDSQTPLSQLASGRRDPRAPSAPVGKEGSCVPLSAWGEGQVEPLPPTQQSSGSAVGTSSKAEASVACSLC

IC50 [nM] | Compound
3580 | CC(=O)Nc1cccc(-c2ccc(Cc3ocnc3C(=O)NC(C)C)cc2)c1 [5-{[4-(3-acetamidophenyl)phenyl]methyl}-N-(propan-2-yl)-1,3-oxazole-4-carboxamide]
1010 | CC(=O)Nc1cccc(-c2ccc(Cc3ocnc3C(=O)NCCc3ccccn3)cc2)c1 [5-{[4-(3-acetamidophenyl)phenyl]methyl}-N-[2-(pyridin-2-yl)ethyl]-1,3-oxazole-4-carboxamide]
741 | CC(=O)Nc1cccc(-c2ccc(Cc3ocnc3C(=O)NCCc3cccnc3)cc2)c1 [5-{[4-(3-acetamidophenyl)phenyl]methyl}-N-[2-(pyridin-3-yl)ethyl]-1,3-oxazole-4-carboxamide]
828 | CC(=O)Nc1cccc(-c2ccc(Cc3ocnc3C(=O)Nc3ccccc3)cc2)c1 [5-{[4-(3-acetamidophenyl)phenyl]methyl}-N-phenyl-1,3-oxazole-4-carboxamide]
831 | CC(=O)Nc1cccc(-c2ccc(Cc3ocnc3C(=O)N[C@H](Cc3ccccc3)C(=O)O)cc2)c1 [(2R)-2-[(5-{[4-(3-acetamidophenyl)phenyl]methyl}-1,3-oxazol-4-yl)formamido]-3-phenylpropanoic acid]

Continued, compound first:

Compound | IC50 [nM]
CC(=O)Nc1cccc(-c2ccc(Cc3ocnc3C(=O)NC(C)c3ccccc3)cc2)c1 (racemic) [5-{[4-(3-acetamidophenyl)phenyl]methyl}-N-(1-phenylethyl)-1,3-oxazole-4-carboxamide] | 278
CC(=O)Nc1cccc(-c2ccc(Cc3ocnc3C(=O)NCCc3ccccc3)cc2)c1 [5-{[4-(3-acetamidophenyl)phenyl]methyl}-N-(2-phenylethyl)-1,3-oxazole-4-carboxamide] | 138
CC(=O)Nc1cccc(-c2ccc(Cc3ocnc3C(=O)NCCc3ccncc3)cc2)c1 [5-{[4-(3-acetamidophenyl)phenyl]methyl}-N-[2-(pyridin-4-yl)ethyl]-1,3-oxazole-4-carboxamide] | 476
CC(=O)Nc1cccc(-c2ccc(Cc3ocnc3C(=O)N[C@H]3C[C@@H]3c3ccccc3)cc2)c1 [5-{[4-(3-acetamidophenyl)phenyl]methyl}-N-[(1S,2R)-2-phenylcyclopropyl]-1,3-oxazole-4-carboxamide] | 358
CC(=O)Nc1cccc(-c2ccc(Cc3ocnc3C(=O)NC[C@H](C)c3ccccc3)cc2)c1 [5-{[4-(3-acetamidophenyl)phenyl]methyl}-N-[(2R)-2-phenylpropyl]-1,3-oxazole-4-carboxamide] | 51
CC(=O)Nc1cccc(-c2ccc(Cc3ocnc3C(=O)NC[C@@H](C)c3ccccc3)cc2)c1 [5-{[4-(3-acetamidophenyl)phenyl]methyl}-N-[(2S)-2-phenylpropyl]-1,3-oxazole-4-carboxamide] | 296
CNC(=O)c1ncoc1Cc1ccc(-c2cccc(NC(C)=O)c2)cc1 [5-{[4-(3-acetamidophenyl)phenyl]methyl}-N-methyl-1,3-oxazole-4-carboxamide] | 3310
CC(=O)Nc1cccc(-c2ccc(Cc3ocnc3C(=O)N(C)CCc3ccccc3)cc2)c1 [5-{[4-(3-acetamidophenyl)phenyl]methyl}-N-methyl-N-(2-phenylethyl)-1,3-oxazole-4-carboxamide] | 2130
CC(=O)Nc1cccc(-c2ccc(Cc3ocnc3C(=O)N[C@@H](Cc3ccccc3)C(=O)O)cc2)c1 [(2S)-2-[(5-{[4-(3-acetamidophenyl)phenyl]methyl}-1,3-oxazol-4-yl)formamido]-3-phenylpropanoic acid] | 16
CC(=O)Nc1cccc(-c2ccc(Cc3ocnc3C(=O)NCCN(C)C)cc2)c1 [N-[2-(dimethylamino)ethyl]-5-{[4-(3-acetamidophenyl)phenyl]methyl}-1,3-oxazole-4-carboxamide] | 3310
CC(=O)Nc1cccc(-c2ccc(Cc3ocnc3C(=O)NCc3ccccc3)cc2)c1 [N-benzyl-5-{[4-(3-acetamidophenyl)phenyl]methyl}-1,3-oxazole-4-carboxamide] | 66

same assay, conditions: pH 7.4; 22 °C; read-out: IC50

Compound | IC50 [nM]
CC(=O)Nc1cccc(-c2ccc(Cc3ocnc3C(=O)NC(C)C)cc2)c1 [5-{[4-(3-acetamidophenyl)phenyl]methyl}-N-(propan-2-yl)-1,3-oxazole-4-carboxamide] | 12400
